In PubChem BioAssay (NCI):
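Compound exposure: 48 hours, 5 concentrations, 96-well plates. Definition used: TGI = concentration required for complete inhibition of growth.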

Columns and labels:
Test in all cases: inhibition of tumour cell growth, NCI panel, 48 h
[1] = tested on: MALME-3M melanoma
[2] = tested on: SNB-75 CNS
[3] = tested on: NCI/ADR-RES ovarian
[4] = tested on: SK-MEL-5 melanoma
[5] = tested on: M14 melanoma
[6] = tested on: SK-OV-3 ovarian
[7] = tested on: LOX IMVI melanoma
[8] = tested on: SW-620 colon
[9] = tested on: MOLT-4 leukemia
[10] = tested on: NCI-H23 lung

SMILES | TGI [1] [µM] | TGI [2] [µM] | TGI [3] [µM] | TGI [4] [µM] | TGI [5] [µM] | TGI [6] [µM] | TGI [7] [µM] | TGI [8] [µM] | TGI [9] [µM] | TGI [10] [µM]
CCCCCCCCC/C=C1/CC(CO)(COC(=O)C2CCCCC2)OC1=O (stereo not given) | > 100 | > 100 | > 100 | > 100 | > 100 | > 100 | > 100 | > 100 | > 100 | > 100
Cc1cc2nc3c(C)c4ccccc4c(C)n3c2cc1C | 6.66 | > 10 | 8.41 | > 10 | > 10 | > 10 | 3.61 | > 10 | > 10 | > 10
CC(C)C(C=O)C(O)(C(F)(F)F)C(F)(F)F (stereo not given) | > 100 | > 100 | > 100 | > 100 | > 100 | > 100 | > 100 | > 100 | > 100 | > 100
CN1CN(c2ccccc2)C2(CCN(C(=O)OC(C)(C)C)CC2)C1=O | > 100 | > 100 | > 100 | > 100 | > 100 | > 100 | > 100 | > 100 | > 100 | > 100
COc1cc(/C=[N+](\[O-])c2ccccc2Cl)ccc1OC(=S)S | > 100 | 63.6 | 76.4 | 38.2 | > 100 | > 100 | > 100 | > 100 | > 100 | > 100
C=C1C(O)C2OC(=O)C(=C)C2C(OC(=O)/C(C)=C/C)CC2(C)OC2C2OC12 (stereo not given) | 29 | > 100 | > 100 | > 100 | > 100 | > 100 | 29.7 | > 100 | 31.2 | 35.3
O=C1C(Nc2ccc(S(=O)(=O)Nc3cnc4ccccc4n3)cc2)=CC(=Nc2ccc(S(=O)(=O)Nc3cnc4ccccc4n3)cc2)c2ccccc21 | 33.8 | 28.5 | > 100 | 31.5 | 33.7 | 31 | 30.7 | 32.1 | 71.2 | 36.1
COc1cc2c(cc1OC)C/C(=N\O)c1cc(OC)c(OC)cc1/C=C\2 | 9.9 | 78.1 | 89.3 | 8.26 | 27.2 | > 85.3 | 25.6 | > 90.6 | > 85 | > 100
CCc1c[n+]2c(cc1C1=CN3c4ccccc4[C@]45CCN6C/C(=C/CO)[C@H](C[C@H]64)[C@@H]([C@@H]1O)[C@H]35)-c1[nH]c3ccccc3c1CC2 | > 50 | > 50 | > 50 | > 50 | > 50 | > 50 | > 50 | > 50 | > 50 | > 50
Cn1c(SCc2ccc([N+](=O)[O-])cc2)nnc1C12CC3CC(CC(C3)C1)C2 | > 10 | > 10 | > 10 | > 10 | > 10 | > 10 | > 10 | > 10 | > 10 | > 10
CN1C(=O)c2c(c3c4ccccc4n(C)c3c3c2c2ccccc2n3C)C1=O | > 100 | > 100 | > 100 | > 100 | > 100 | > 100 | > 100 | > 100 | > 100 | > 100
OC[C@H](O)[C@@H](OCc1ccccc1)[C@H](NCc1ccccc1)c1cccs1 | > 100 | > 100 | > 100 | > 100 | > 100 | > 100 | > 100 | > 100 | > 100 | > 100
CCOC(=O)C(NS(=O)(=O)c1ccccc1)(C(F)(F)F)P(=O)(OCC(C)C)OCC(C)C (stereo not given) | > 100 | > 100 | > 100 | > 100 | > 100 | > 100 | > 100 | > 100 | > 100 | > 100
CCOC(=O)C1=C(C)NC(c2ccccc2)=C(C(=O)OCc2ccccc2)C1C#Cc1ccccc1 (stereo not given) | > 100 | > 100 | > 100 | > 100 | > 100 | > 100 | > 100 | > 100 | > 100 | > 100
CCOP(=O)(OCC)C(Cc1cn(S(=O)(=O)c2ccc(C)cc2)cn1)C(=O)O (stereo not given) | > 100 | > 100 | > 100 | > 100 | > 100 | > 100 | > 100 | > 100 | > 100 | > 100
CC(=O)[C@H]1CC[C@@H]2[C@]1(C)CC=C1[C@]23C=C[C@]2(C[C@@H](O)CC[C@]12C)C(C(=O)O)C3C(=O)O (stereo not given in full) | > 100 | > 100 | > 100 | > 100 | > 100 | > 100 | > 100 | > 100 | > 100 | > 100

SMILES | TGI [1] [µM] | TGI [2] [µM] | TGI [3] [µM] | TGI [4] [µM] | TGI [5] [µM] | TGI [6] [µM] | TGI [7] [µM] | TGI [8] [µM] | TGI [9] [µM] | TGI [10] [µM]
CC(=O)O[C@H]1C(=O)[C@@]2(C)C(C(OC(=O)c3ccccc3)[C@]3(O)CC(OC(=O)C(O)C(NC(=O)c4cccc(Cl)c4)c4ccccc4)C(C)=C1C3(C)C)[C@]1(OC(C)=O)CO[C@@H]1C[C@@H]2O (stereo not given in full) | > 10 | 8.9 | > 10 | 6.22 | > 10 | > 10 | > 10 | > 10 | > 10 | > 10
C#CCn1c(=O)c2cc(OC)c(OC)cc2n(CC#C)c1=O | > 10 | > 10 | > 10 | > 10 | > 10 | > 10 | > 10 | > 10 | > 10 | > 10
CCOC(=O)/C(C(N)=O)=C(/O)c1cnccn1 | > 100 | > 100 | > 100 | > 100 | > 100 | > 100 | > 100 | > 100 | > 100 | > 100
COC(=O)C1=C(C(=O)OC)SC2(S1)C(C(=O)OC)=C(C(=O)OC)Sc1c2ssc1=O | 1.55 | 11.4 | 2.82 | 2.59 | 3.88 | 24.8 | 0.817 | 2.47 | 0.843 | 4.12
O=c1oc2c(Cl)cc(Cl)cc2cc1-c1cn2c(n1)sc1ccccc12 | > 100 | > 100 | > 100 | > 100 | > 100 | > 100 | > 100 | 92.4 | 52 | > 100
CN(CCCNC(=O)c1[nH]nc2c1ccc1ccccc12)CCCNC(=O)c1[nH]nc2c1ccc1ccccc12 | 22.4 | 31.3 | > 100 | 17 | 20.1 | 34.2 | 25.9 | 35.2 | 26.2 | 33
CC(NC(=O)C(NC(=O)C(NC(=O)C(F)(F)F)C(C)C)C(C)C)C(=O)Oc1c(Cl)c(Cl)c(Cl)c(Cl)c1Cl (stereo not given) | > 100 | > 100 | > 100 | > 100 | > 100 | > 100 | > 100 | > 100 | > 100 | > 100
C1=Nc2ccc(cc2)-c2ccc(cc2)N=Cc2ccccc2OCc2cccc(n2)COc2ccccc21 | > 100 | 12.1 | > 100 | > 100 | > 100 | > 100 | > 100 | > 100 | > 100 | 45.9
CN(C)CCNC(=O)c1cccc2c(NC(CCCN=C(N)N)C(=O)O)c3ccccc3nc12 (stereo not given) | 23.4 | 34.5 | 25.1 | > 100 | > 100 | > 100 | > 100 | > 100 | > 100 | 30.5
O=C(O)Cn1cnc2c(=O)[nH]c(Nc3ccccc3)nc21 | > 100 | > 100 | > 100 | > 100 | > 100 | > 100 | > 100 | > 100 | > 100 | > 100
O=S1(=O)OCCOS(=O)(=O)C1C1c2ccccc2-c2ccccc21 | > 100 | 31.9 | 85.1 | > 100 | > 100 | > 100 | 89 | > 100 | 48.2 | > 100
O=C(NC1CCCCC1)N1CCNC1=S | > 100 | > 100 | > 100 | > 100 | > 100 | > 100 | > 100 | > 100 | > 100 | > 100
Nc1nc(Cl)cc(Oc2ccc(Cl)cc2)n1 | > 100 | > 100 | > 100 | > 100 | > 100 | > 100 | > 100 | > 100 | > 100 | > 100
CC(C)(C)c1ccc(OCCOc2ccc(C(C)(C)C)cc2NC=O)c(NC=O)c1 | 24.8 | > 78.7 | 37.7 | 15.3 | 20.7 | > 100 | 19.2 | > 58.3 | 19.1 | 40.7
c1ccc(C(OCCN2CC3CCC(C2)N3)c2ccccc2)cc1 | 30.5 | > 100 | > 100 | 36.1 | 32.3 | > 100 | > 100 | > 100 | > 100 | > 100
